Experiment: Release (dissolution) profile of capsules, USP Apparatus 2 (paddle)
Assay type: physicochemical
Conditions: 0.04 mg capsule; for Release rate (percentage of Compound 1 released over time): Poloxamer 188:food grade GMS 50:50
Description: USP Apparatus 2 (Paddle Apparatus) is described, for example, in the United States Pharmacopeial Convention, Feb. 1, 2012, Chapter <711> (“Dissolution”), incorporated by reference herein in its entirety. See http://www.usp.org/sites/default/files/usp_pdf/EN/USPNF/revisions/m99470-gc_711.pdf. The assembly from Apparatus 1 is used, except that a paddle formed from a blade and a shaft is used as the stirring element. The shaft is positioned so that its axis is not more than 2 mm from the vertical axis of the vessel at any point and rotates smoothly without significant wobble that could affect the results. The vertical center line of the blade passes through the axis of the shaft so that the bottom of the blade is flush with the bottom of the shaft. A distance of 25±2 mm between the bottom of the blade and the inside bottom of the vessel is maintained during the test. The metallic or suitably inert, rigid blade and shaft comprise a single entity. A suitable two-part detachable design may be used provided the assembly remains firmly engaged during the test. The paddle blade and shaft may be coated with a suitable coating so as to make them inert. The dosage unit is allowed to sink to the bottom of the vessel before rotation of the blade is started. A small, loose piece of nonreactive material, such as not more than a few turns of wire helix, may be attached to dosage units that would otherwise float. Other validated sinker devices may be used.
Unless otherwise specified, the release profiles for capsules were measured using USP Apparatus 2 (paddle).
All release profiles disclosed in Tables 3c-3p were measured with USP Apparatus 2 (paddle) at 50 rpm in 500 mL of aqueous sodium phosphate at a concentration of 0.05 M (pH=6.8). The values in a given table relate to capsules obtained from the same batch. Values shown represent mean values over a number of dissolution tests (“n” in each table) in each case.

release profile post-curing (Poloxamer 188:food grade GMS 50:50, cured 18 hours, one week, two weeks and four weeks post-curing (FIG. 6)): remained substantially the same
Release rate (percentage of Compound 1 released over time) (1 wk (40° C.) storage, 30 min): 11.1%
Release rate (percentage of Compound 1 released over time) (1 wk (40° C.) storage, 60 min): 22.6%
Release rate (percentage of Compound 1 released over time) (1 wk (40° C.) storage, 120 min): 40.1%
Release rate (percentage of Compound 1 released over time) (1 wk (40° C.) storage, 180 min): 59.2%
Release rate (percentage of Compound 1 released over time) (1 wk (40° C.) storage, 240 min): 71.8%
Release rate (percentage of Compound 1 released over time) (1 wk (40° C.) storage, 360 min): 88.4%
Release rate (percentage of Compound 1 released over time) (1 wk (40° C.) storage, 480 min): 92.2%
Release rate (percentage of Compound 1 released over time) (1 wk (40° C.) storage, 600 min): 96.2%
Release rate (percentage of Compound 1 released over time) (1 wk (40° C.) storage, 720 min): 95.3%
Release rate (percentage of Compound 1 released over time) (1 wk (40° C.) storage, 735 min): 96.1%
Release rate (percentage of Compound 1 released over time) (2 wks (40° C.) storage, 30 min): 10.8%
Release rate (percentage of Compound 1 released over time) (2 wks (40° C.) storage, 60 min): 18.3%
Release rate (percentage of Compound 1 released over time) (2 wks (40° C.) storage, 120 min): 36.8%
Release rate (percentage of Compound 1 released over time) (2 wks (40° C.) storage, 180 min): 52.9%
Release rate (percentage of Compound 1 released over time) (2 wks (40° C.) storage, 240 min): 67.4%
Release rate (percentage of Compound 1 released over time) (2 wks (40° C.) storage, 360 min): 83.3%
Release rate (percentage of Compound 1 released over time) (2 wks (40° C.) storage, 480 min): 90.3%
Release rate (percentage of Compound 1 released over time) (2 wks (40° C.) storage, 600 min): 93.8%
Release rate (percentage of Compound 1 released over time) (2 wks (40° C.) storage, 720 min): 93.7%
Release rate (percentage of Compound 1 released over time) (2 wks (40° C.) storage, 735 min): 94.3%
Release rate (percentage of Compound 1 released over time) (4 wks (40° C.) storage, 30 min): 7.3%
Release rate (percentage of Compound 1 released over time) (4 wks (40° C.) storage, 60 min): 17.7%
Release rate (percentage of Compound 1 released over time) (4 wks (40° C.) storage, 120 min): 37.4%
Release rate (percentage of Compound 1 released over time) (4 wks (40° C.) storage, 180 min): 54.6%
Release rate (percentage of Compound 1 released over time) (4 wks (40° C.) storage, 240 min): 70.3%
Release rate (percentage of Compound 1 released over time) (4 wks (40° C.) storage, 360 min): 87.5%
Release rate (percentage of Compound 1 released over time) (4 wks (40° C.) storage, 480 min): 90,9%
Release rate (percentage of Compound 1 released over time) (4 wks (40° C.) storage, 600 min): 93.2%
Release rate (percentage of Compound 1 released over time) (4 wks (40° C.) storage, 720 min): 95.0%
Release rate (percentage of Compound 1 released over time) (4 wks (40° C.) storage, 735 min): 94.3%
Release rate (percentage of Compound 1 released over time) (18 hrs (50° C.) curing, 30 min): 14.3%
Release rate (percentage of Compound 1 released over time) (18 hrs (50° C.) curing, 60 min): 21.8%
Release rate (percentage of Compound 1 released over time) (18 hrs (50° C.) curing, 120 min): 39.9%
Release rate (percentage of Compound 1 released over time) (18 hrs (50° C.) curing, 180 min): 56.3%
Release rate (percentage of Compound 1 released over time) (18 hrs (50° C.) curing, 240 min): 72.6%
Release rate (percentage of Compound 1 released over time) (18 hrs (50° C.) curing, 360 min): 89.2%
Release rate (percentage of Compound 1 released over time) (18 hrs (50° C.) curing, 480 min): 93.5%
Release rate (percentage of Compound 1 released over time) (18 hrs (50° C.) curing, 600 min): 95.7%
Release rate (percentage of Compound 1 released over time) (18 hrs (50° C.) curing, 720 min): 96.9%
Release rate (percentage of Compound 1 released over time) (18 hrs (50° C.) curing, 735 min): 95.6%
Release rate (percentage of Compound 1 released over time) (T = 0 (pre-curing), 30 min): 11.0%
Release rate (percentage of Compound 1 released over time) (T = 0 (pre-curing), 60 min): 18.3%
Release rate (percentage of Compound 1 released over time) (T = 0 (pre-curing), 120 min): 30.1%
Release rate (percentage of Compound 1 released over time) (T = 0 (pre-curing), 180 min): 39.6%
Release rate (percentage of Compound 1 released over time) (T = 0 (pre-curing), 240 min): 48.8%
Release rate (percentage of Compound 1 released over time) (T = 0 (pre-curing), 360 min): 64.1%
SMILES: O=C(O)COC[C@H]1CC[C@H](COC(=O)N(c2ccccc2)c2ccc(Cl)cc2)CC1 [Compound 1, 2-(((1r,4r)-4-(((4-chlorophenyl)(phenyl)carbamoyloxy)methyl)cyclohexyl)methoxy)acetic acid]

Source: patent US12433865B2, “Compositions comprising PGI2-receptor agonists and processes for the preparation thereof” (Arena Pharmaceuticals, Inc., priority 2018, dated 2025)
